Here are results for 21 compounds from patent publication KR20100022620A, “2-(2-옥소-2-페닐에틸설파닐)-벤즈이미다졸-4-카르복스아미드 유도체 또는 이의 약학적으로 허용가능한 염, 이의 제조방법 및 이를 유효성분으로 함유하는 폴리(adp-리보스)폴리머라제-1(parp-1)의 과활성에 의해 유발되는 질환의 예방 또는 치료용 약학적 조성물” (한국화학연구원, priority 2008, dated 2010).

Structures are written as SMILES. pIC50: −log10 of the molar value.

One test concerns the target T1, PARP-1 (Homo sapiens, UniProt P09874).
T1 construct: purchased TREVIGEN 4671-096-K
Briefly: PARP-1 inhibition (Universal Colorimetric PARP Assay-Histones kit). In kind it is biochemical. As to conditions: for pIC50: IC50 determined only for drugs inhibiting 50% or more at 10 μM, 0.01 ~10 μM, 0.5U PARP, room temperature, 1 h; for PARP-1 inhibitory effect (in words): judged from Table 2.

The test system of another test is ischemic heart (허혈심장). Briefly: Antiischemic (cardioprotective) effect in in vivo ischemic heart model of the rat. As to conditions: 1 mg/kg; for reduction of myocardial infarction rate / cardioprotective effect (in words): rat, versus negative control 58.6%; for myocardial infarction rate (IS/AAR, infarct size/area at risk): via femoral vein, male rat, 45 min occlusion, 90 min reperfusion, negative control 58.6%.

T1 sequence (P09874 whole entry): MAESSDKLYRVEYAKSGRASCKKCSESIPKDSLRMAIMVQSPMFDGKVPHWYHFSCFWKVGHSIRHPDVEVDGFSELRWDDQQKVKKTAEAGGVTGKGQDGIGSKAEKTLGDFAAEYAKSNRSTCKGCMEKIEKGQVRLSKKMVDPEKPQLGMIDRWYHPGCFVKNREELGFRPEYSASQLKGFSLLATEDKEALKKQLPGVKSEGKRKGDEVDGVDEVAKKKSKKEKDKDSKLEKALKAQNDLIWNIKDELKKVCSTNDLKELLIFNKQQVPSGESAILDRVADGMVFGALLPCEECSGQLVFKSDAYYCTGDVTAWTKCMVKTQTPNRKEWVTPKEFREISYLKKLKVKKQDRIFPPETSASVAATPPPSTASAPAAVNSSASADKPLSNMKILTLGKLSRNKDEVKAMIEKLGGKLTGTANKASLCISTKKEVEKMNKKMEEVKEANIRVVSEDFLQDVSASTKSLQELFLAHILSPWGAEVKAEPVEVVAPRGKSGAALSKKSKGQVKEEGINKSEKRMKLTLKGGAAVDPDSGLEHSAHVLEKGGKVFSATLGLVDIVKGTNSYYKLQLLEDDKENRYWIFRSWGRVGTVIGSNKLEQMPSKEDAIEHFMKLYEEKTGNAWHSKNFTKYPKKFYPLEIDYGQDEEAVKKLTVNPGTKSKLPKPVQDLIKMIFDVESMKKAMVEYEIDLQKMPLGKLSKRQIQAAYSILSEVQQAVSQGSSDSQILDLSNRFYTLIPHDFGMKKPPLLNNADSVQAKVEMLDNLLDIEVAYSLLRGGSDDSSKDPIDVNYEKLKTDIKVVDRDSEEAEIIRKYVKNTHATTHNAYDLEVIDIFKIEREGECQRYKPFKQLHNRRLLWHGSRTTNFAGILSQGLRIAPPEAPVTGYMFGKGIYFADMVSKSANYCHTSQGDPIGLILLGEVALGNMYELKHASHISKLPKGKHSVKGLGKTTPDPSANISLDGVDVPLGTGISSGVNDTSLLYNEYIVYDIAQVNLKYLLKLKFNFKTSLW

As a reminder, the pIC50 is −log10 of the IC50, conventionally taken in molar units. At PARP-1, `COc1cccc(C(=O)CSc2nc3c(C(N)=O)cccc3[nH]2)c1` [실시예 7, 2-[2-(3-메톡시페닐)-2-옥소-에틸설파닐]-1H-벤즈이미다졸-4-카르복스아미드] gave a negative logarithm of the IC50 (pIC50) of 5.65. `NC(=O)c1cccc2[nH]c(SCC(=O)c3cccc(N4CCCC4)c3)nc12` [실시예 16, 2-[2-(3-피롤리딘-1-일페닐)-2-옥소-에틸설파닐]-1H-벤즈이미다졸-4-카르복스아미드] showed a negative logarithm of the IC50 (pIC50) against PARP-1 of 5.92. As to `NC(=O)c1ccc(C(=O)CSc2nc3c(C(N)=O)cccc3[nH]2)cc1` [실시예 19, 2-[2-(4-카르바모일페닐)-2-옥소-에틸설파닐]-1H-벤즈이미다졸-4-카르복스아미드], at PARP-1, the pIC50 is 6.42 and the “PARP-1 inhibitory effect (in words)” value was “매우 뛰어난 PARP-1 억제효과”. Moreover, in the test on ischemic heart (허혈심장), the “reduction of myocardial infarction rate / cardioprotective effect (in words)” value is on record as “우수한 심장보호효과” and the “myocardial infarction rate (IS/AAR, infarct size/area at risk)” value is reported as 36.3%. In turn, `COc1ccc(C(=O)CSc2nc3c(C(N)=O)cccc3[nH]2)cc1` [실시예 14, 2-[2-(4-메톡시페닐)-2-옥소-에틸설파닐]-1H-벤즈이미다졸-4-카르복스아미드] showed a pIC50 against PARP-1 of 5.71. As to `NC(=O)c1cccc2[nH]c(SCC(=O)c3cccc(F)c3)nc12` [실시예 8, 2-[2-(3-플루오로페닐)-2-옥소-에틸설파닐]-1H-벤즈이미다졸-4-카르복스아미드], on PARP-1, the pIC50 was 6.02 and the “PARP-1 inhibitory effect (in words)” value was “매우 뛰어난 PARP-1 억제효과”. `Cc1ccc(C)c(C(=O)CSc2nc3c(C(N)=O)cccc3[nH]2)c1` [실시예 3, 2-[2-(2,5-디메틸페닐)-2-옥소-에틸설파닐]-1H-벤즈이미다졸-4-카르복스아미드] gave a pIC50 at PARP-1 of 5.88. In the case of `CN(C)c1ccc(C(=O)CSc2nc3c(C(N)=O)cccc3[nH]2)cc1` [실시예 5, 2-[2-(4-디메틸아미노페닐)-2-옥소-에틸설파닐]-1H-벤즈이미다졸-4-카르복스아미드], the pIC50 at PARP-1 was under 5.00. In turn, `NC(=O)c1cccc2[nH]c(SCC(=O)c3ccccc3)nc12` [실시예 20, 2-[2-페닐-2-옥소-에틸설파닐]-1H-벤즈이미다졸-4-카르복스아미드] gave a pIC50 at PARP-1 of under 5.00. For `Cc1ccccc1C(=O)CSc1nc2c(C(N)=O)cccc2[nH]1` [실시예 12, 2-[2-(2-메틸페닐)-2-옥소-에틸설파닐]-1H-벤즈이미다졸-4-카르복스아미드], at PARP-1, the pIC50 was 6.02 and the “PARP-1 inhibitory effect (in words)” value is reported as “매우 뛰어난 PARP-1 억제효과”.

`COc1ccccc1C(=O)CSc1nc2c(C(N)=O)cccc2[nH]1` [실시예 13, 2-[2-(2-메톡시페닐)-2-옥소-에틸설파닐]-1H-벤즈이미다졸-4-카르복스아미드] showed a negative-log IC50 (pIC50) at PARP-1 of 5.95. With `NC(=O)c1cccc2[nH]c(SCC(=O)c3ccc(Cl)cc3Cl)nc12` [실시예 9, 2-[2-(2,4-디클로로페닐)-2-옥소-에틸설파닐]-1H-벤즈이미다졸-4-카르복스아미드], the pIC50 at PARP-1 was 5.32. Turning to `NC(=O)c1cccc(C(=O)CSc2nc3c(C(N)=O)cccc3[nH]2)c1` [실시예 18, 2-[2-(3-카르바모일페닐)-2-옥소-에틸설파닐]-1H-벤즈이미다졸-4-카르복스아미드], at PARP-1, the pIC50 was 6.37 and the “PARP-1 inhibitory effect (in words)” value is reported as “매우 뛰어난 PARP-1 억제효과”. Besides, in the test with ischemic heart (허혈심장), the “reduction of myocardial infarction rate / cardioprotective effect (in words)” value is reported as “우수한 심장보호효과” and the “myocardial infarction rate (IS/AAR, infarct size/area at risk)” value was found to be 37.5%. With `NC(=O)c1cccc2[nH]c(SCC(=O)c3cccc(Br)c3)nc12` [실시예 11, 2-[2-(3-브로모페닐)-2-옥소-에틸설파닐]-1H-벤즈이미다졸-4-카르복스아미드], the pIC50 against PARP-1 is 5.65.

As to `NC(=O)c1cccc2[nH]c(SCC(=O)c3ccc(F)cc3)nc12` [실시예 4, 2-[2-(4-플루오로페닐)-2-옥소-에틸설파닐]-1H-벤즈이미다졸-4-카르복스아미드], on PARP-1, the pIC50 is 6.03 and the “PARP-1 inhibitory effect (in words)” value is recorded as “매우 뛰어난 PARP-1 억제효과”. Take `NC(=O)c1cccc2[nH]c(SCC(=O)c3ccc(N4CCCCC4)cc3)nc12` [실시예 17, 2-[2-(3-피페리딘-1-일페닐)-2-옥소-에틸설파닐]-1H-벤즈이미다졸-4-카르복스아미드]: at PARP-1, the pIC50 is 5.85.

In turn, `NC(=O)c1cccc2[nH]c(SCC(=O)c3ccc(N4CCCC4)cc3)nc12` [실시예 6, 2-[2-(4-피롤리딘-1-일페닐)-2-옥소-에틸설파닐]-1H-벤즈이미다졸-4-카르복스아미드] gave a negative-log IC50 (pIC50) at PARP-1 of under 5.00.

The compound `NC(=O)c1cccc2[nH]c(SCC(=O)c3ccccc3F)nc12` [실시예 10, 2-[2-(2-플루오로페닐)-2-옥소-에틸설파닐]-1H-벤즈이미다졸-4-카르복스아미드] gave a negative logarithm of the IC50 (pIC50) against PARP-1 of 5.91. Still for that read-out and setting: under `Cc1cccc(C(=O)CSc2nc3c(C(N)=O)cccc3[nH]2)c1` [실시예 15, 2-[2-(3-메틸페닐)-2-옥소-에틸설파닐]-1H-벤즈이미다졸-4-카르복스아미드] stands 5.72.

Take `NC(=O)c1cccc2[nH]c(SCC(=O)c3ccc(Br)cc3)nc12` [실시예 2, 2-[2-(4-브로모페닐)-2-옥소-에틸설파닐]-1H-벤즈이미다졸-4-카르복스아미드]: at PARP-1, the pIC50 is 6.15 and the “PARP-1 inhibitory effect (in words)” value is “매우 뛰어난 PARP-1 억제효과”. Also, in the test with ischemic heart (허혈심장), the “reduction of myocardial infarction rate / cardioprotective effect (in words)” value is listed as “음성대조군보다 유의성 있는 감소” and the “myocardial infarction rate (IS/AAR, infarct size/area at risk)” value is 44.1%.

Regarding `NC(=O)c1cccc2[nH]c(SCC(=O)c3ccc(C=O)cc3)nc12` [실시예 21, 2-[2-(4-포르밀페닐)-2-옥소-에틸설파닐]-1H-벤즈이미다졸-4-카르복스아미드], on PARP-1, the pIC50 was 6.12 and the “PARP-1 inhibitory effect (in words)” value is on record as “매우 뛰어난 PARP-1 억제효과”. `NC(=O)c1cccc2[nH]c(SCC(=O)c3cc(Cl)ccc3Cl)nc12` [실시예 1, 2-[2-(2,5-디클로로페닐)-2-옥소-에틸설파닐]-1H-벤즈이미다졸-4-카르복스아미드]: the pIC50 at PARP-1 was 5.98.
